The values below come from ChEMBL document CHEMBL6182895, “Synthesis, in vitro and in vivo evaluation, and computational modeling analysis of thioxothiazolidine derivatives as highly potent and selective α-amylase inhibitors” (Eur J Med Chem, 2025).

Assay [1] is described as follows: Inhibition of porcine pancreatic alpha-amylase using starch as substrate preincubated for 10 mins followed by substrate addition and measured after 5 mins. Further details: species or system Sus scrofa.
Assay [2] is filed under the species Homo sapiens. The assay can be described thus: Inhibition of alpha-glucosidase (unknown origin) using p-NPG as substrate preincubated for 5 mins followed by substrate addition and measured after 30 mins relative to control. More on the design: concentration or dose not given beside the values. Particulars: time 35.0 min.
The species entered for assay [3] is Homo sapiens. Nature of the assay: Inhibition of alpha-amylase (unknown origin) using starch as substrate preincubated for 10 mins followed by substrate addition and measured after 10 mins relative to control. Further details: concentration or dose not given beside the values. As to conditions: time 20.0 min.
The nature of assay [4]: Inhibition of porcine pancreatic alpha-amylase using starch as substrate preincubated for 10 mins followed by substrate addition and measured after 30 mins. More on the design: species or system Sus scrofa.
Assay [5] can be described thus: Inhibition of alpha-amylase (unknown origin) using starch as substrate preincubated for 10 mins followed by substrate addition and measured after 10 mins. More on the design: species or system Homo sapiens.
The nature of assay [6]: Inhibition of alpha-amylase (unknown origin). Further details: species or system Homo sapiens.
The species entered for assay [7] is Homo sapiens. Nature of the assay: Potency index, ratio of acarbose IC50 to test compound IC50 for inhibition of alpha-amylase (unknown origin) using starch as substrate preincubated for 10 mins followed by substrate addition and measured after 10 mins. As to conditions: time 20.0 min.
Assay [8] is described as follows: Inhibition of alpha-amylase (unknown origin) using starch as substrate measured after 30 mins. More on the design: species or system Homo sapiens.

Regarding `COC(=O)[C@@H]1N[C@@]2(C(=O)Nc3ccc(Br)cc32)[C@@]2(SC(=S)NC2=O)[C@H]1c1ccccc1`, inhibition in assay [1] was half-maximal at 1490 nM (IC50).

In the case of `Cn1ccnc1/C=C1\SC(=S)N(CC(=O)Nc2c(F)cc(Br)cc2Cl)C1=O`, the inhibition (usually the share of the control response that was lost under treatment) in the assay listed under Homo sapiens [2] came to 8.25%; in the assay filed under Homo sapiens [3], 38.2%.

`O=C(CN1C(=O)/C(=C/c2nccs2)SC1=S)Nc1cccnn1`: the inhibition in the assay listed under Homo sapiens [2] and in the assay filed under Homo sapiens [3] was 10.1% in each case.

`CC(C)CNC(=O)CN1C(=O)/C(=C/c2nccs2)SC1=S`: the inhibition stood at 6.43% in the assay listed under Homo sapiens [2] and 30.4% in the assay filed under Homo sapiens [3].

Regarding `Cn1ccnc1/C=C1\SC(=S)N(CC(=O)Nc2cccnn2)C1=O`, the inhibition was found to be 9.47% in the assay filed under Homo sapiens [2] and 27.4% in the assay filed under Homo sapiens [3].

As to `CC(=O)N1C(=O)C(Cc2cn(-c3ccc([N+](=O)[O-])cc3[N+](=O)[O-])nc2-c2ccc(O)cc2)SC1=S` (stereo not drawn), the midpoint of inhibition in assay [4], the IC50, lay at 638 µM.

As for `O=C(CN1C(=O)/C(=C/c2csc3ccccc23)SC1=S)Nc1ccc(Br)cc1F`, the inhibition in the assay listed under Homo sapiens [2] amounted to 4.31%; in the assay listed under Homo sapiens [3], 14.7%.

On to `O=C(CN1C(=O)/C(=C/c2nc3ccccc3s2)SC1=S)Nc1ccc(Br)cc1F`, for which the figures for the inhibition in the assay listed under Homo sapiens [2] and in the assay filed under Homo sapiens [3] were 7.65% and 69.2%, respectively. In addition, in assay [5], 128 µM corresponded to half-maximal inhibition (IC50).

As to `O=C(CN1C(=O)/C(=C/c2csc3ccccc23)SC1=S)Nc1cccnn1`, the values for the inhibition in the assay listed under Homo sapiens [2] and in the assay listed under Homo sapiens [3] were 7.87% and 37.8%, respectively.

As to `O=C(CN1C(=O)/C(=C/c2nccs2)SC1=S)Nc1c(F)cc(F)cc1Br`, the inhibition in the assay filed under Homo sapiens [2] was 4.85%; in the assay listed under Homo sapiens [3] it was 42.8%.

Take `COc1ccc(C(=O)NC(=O)NC2CC2)cc1`: the IC50 (as a rule, the concentration that inhibits the measured activity by half) in assay [6] was found to be 1.57 µM.

Turning to `Oc1ccc(-c2nnc(CSc3nc4ccccc4[nH]3)o2)c(O)c1`, the IC50 in assay [6] came to 6.2 µM.

Take `O=C(CN1C(=O)/C(=C/c2csc3ccccc23)SC1=S)Nc1c(F)cc(F)cc1Br`: the figures for the inhibition in the assay filed under Homo sapiens [2] and in the assay filed under Homo sapiens [3] were 6.49% and 60.4%, respectively. Besides, half-maximal inhibition in assay [5] (IC50) was put at 190 µM.

Take `O=C(CN1C(=O)/C(=C/c2nc3ccccc3s2)SC1=S)Nc1c(F)cc(Br)cc1Cl`: the values for the inhibition in the assay filed under Homo sapiens [2] and in the assay filed under Homo sapiens [3] were 8.37% and 69.8%, respectively. Moreover, inhibition in assay [5] was half-maximal at 167 µM (IC50).

As to `O=C(CN1C(=O)/C(=C/c2nc3ccccc3s2)SC1=S)NC12CC3CC(CC(C3)C1)C2`, the inhibition in the assay listed under Homo sapiens [2] was 6.63%; in the assay listed under Homo sapiens [3] it was 29.6%.

Consider `O=C(CN1C(=O)/C(=C/c2nc3ccccc3s2)SC1=S)Nc1ccc(C(F)(F)F)cc1`, for which the figures for the inhibition in the assay listed under Homo sapiens [2] and in the assay listed under Homo sapiens [3] were 3.78% and 61.7%, respectively. This compound also came in with a 50% inhibitory concentration (IC50) in assay [5] of 4.07 µM. For the same compound, the Ratio IC50 in the assay listed under Homo sapiens [7] is 234.

As for `Cn1ccnc1/C=C1\SC(=S)N(CC(=O)Nc2c(F)cc(F)cc2Br)C1=O`, the inhibition in the assay filed under Homo sapiens [2] amounted to 6.24%; in the assay filed under Homo sapiens [3], 59.2%. This compound gave an IC50 in assay [5] of 129 µM.

Turning to `O=C(Cc1c[nH]c2ccccc12)NNS(=O)(=O)c1ccccc1F`, the IC50 in assay [6] was found to be 1.8 µM.

For `O=C(CN1C(=O)/C(=C/c2nccs2)SC1=S)Nc1ccc(Br)cc1F`, the inhibition in the assay filed under Homo sapiens [2] is 9.25%; in the assay listed under Homo sapiens [3] it was 22.6%.

Consider `O=C(CN1C(=O)/C(=C/c2nccs2)SC1=S)Nc1ccc(C(F)(F)F)cc1`, for which the inhibition was found to be 7.83% in the assay filed under Homo sapiens [2] and 34.8% in the assay filed under Homo sapiens [3].

Turning to `CC(C)CNC(=O)CN1C(=O)/C(=C/c2nccn2C)SC1=S`, the inhibition in the assay filed under Homo sapiens [2] stood at 4.88%; in the assay listed under Homo sapiens [3], 23.3%.

On to `O=C(CN1C(=O)/C(=C/c2csc3ccccc23)SC1=S)NC12CC3CC(CC(C3)C1)C2`, for which the inhibition worked out at 6.53% in the assay listed under Homo sapiens [2] and 32.5% in the assay filed under Homo sapiens [3].

As for `Cn1ccnc1/C=C1\SC(=S)N(CC(=O)NC23CC4CC(CC(C4)C2)C3)C1=O`, the values for the inhibition in the assay listed under Homo sapiens [2] and in the assay filed under Homo sapiens [3] were 8.22% and 15.2%, respectively.

Take `O=C(CN1C(=O)/C(=C/c2nccs2)SC1=S)NC12CC3CC(CC(C3)C1)C2`: the inhibition in the assay listed under Homo sapiens [2] was determined as 5.67%; in the assay listed under Homo sapiens [3], 42.1%.

Regarding `O=C(CN1C(=O)/C(=C/c2csc3ccccc23)SC1=S)Nc1ccc(C(F)(F)F)cc1`, the values for the inhibition in the assay filed under Homo sapiens [2] and in the assay listed under Homo sapiens [3] were 4.59% and 73.5%, respectively. This compound displayed an IC50 in assay [5] of 14 µM. Also, the Ratio IC50 in the assay filed under Homo sapiens [7] is 68.

Turning to `Fc1ccc(NC(=S)Nc2nnc(-c3ccc4cn[nH]c4c3)s2)cc1`, half-maximal inhibition in assay [6] (IC50) required 9.9 µM.

Consider `Cn1ccnc1/C=C1\SC(=S)N(CC(=O)Nc2ccc(Br)cc2F)C1=O`, for which the inhibition worked out at 8.36% in the assay listed under Homo sapiens [2] and 10.2% in the assay filed under Homo sapiens [3].

`O=C(CN1C(=O)/C(=C/c2csc3ccccc23)SC1=S)Nc1c(F)cc(Br)cc1Cl`: the inhibition in the assay filed under Homo sapiens [2] was found to be 10.2%; in the assay filed under Homo sapiens [3], 68.2%. For the same compound, it took 154 µM to reach half-maximal inhibition in assay [5] (IC50).

With `CC(C)CNC(=O)CN1C(=O)/C(=C/c2csc3ccccc23)SC1=S`, the figures for the inhibition in the assay filed under Homo sapiens [2] and in the assay listed under Homo sapiens [3] were 8.62% and 29.6%, respectively.

Regarding `CC(C)CNC(=O)CN1C(=O)/C(=C/c2nc3ccccc3s2)SC1=S`, the inhibition stood at 6.23% in the assay filed under Homo sapiens [2] and 43.2% in the assay filed under Homo sapiens [3].

In the case of `COc1ccc(C2C(C#N)=C(NC(C)=O)Oc3oc4ccccc4c(=O)c32)cc1` (stereo not drawn), in assay [8], the half-maximal inhibitory concentration (IC50) came out at 2.04 nM.

On to `O=C(CN1C(=O)/C(=C/c2nccs2)SC1=S)Nc1c(F)cc(Br)cc1Cl`, for which the values for the inhibition in the assay listed under Homo sapiens [2] and in the assay filed under Homo sapiens [3] were 5.14% and 47.1%, respectively. The IC50 in assay [5] amounted to 45.1 µM. Moreover, the Ratio IC50 in the assay listed under Homo sapiens [7] was found to be 21.

Turning to `O=C(CN1C(=O)/C(=C/c2nc3ccccc3s2)SC1=S)Nc1c(F)cc(F)cc1Br`, the inhibition is 6.16% in the assay filed under Homo sapiens [2] and 40.1% in the assay listed under Homo sapiens [3].

`O=C(CN1C(=O)/C(=C/c2nc3ccccc3s2)SC1=S)Nc1cccnn1`: the inhibition in the assay listed under Homo sapiens [2] was 7.42%; in the assay filed under Homo sapiens [3], 37.4%.

Compound `O=C1OCc2cc(-c3ccc(C(F)(F)F)cc3)ccc21` came in with an IC50 in assay [6] of 85.4 µM.
